Laboratory results taken from patent US20190247343A1, “USE OF FENOFIBRIC ACID IN THE TREATMENT OF HEPATIC DISEASES” (GENCOD, priority 2016, published 2019).
Converted amounts (≈) assume the structure as drawn. “Also recorded” adds a separate entry of the source.

Tests used:
[1] = Solubility at saturation of salts and crystalline forms, buffered solution pH 6.0; type: physicochemical; conditions: aqueous buffer pH 6.0, after 24 hours of stirring, European Pharmacopoeia criteria
Experimental: The purpose of this example is to determine the solubility characteristics of different crystalline forms and salts of fenofibric acid, with a view to administration by the oral mucosal route, in order to treat or forestall patients of liver diseases, such as fatty liver disease.
The solubilisation kinetics are determined by placing fenofibric acid samples at an excess in an aqueous buffered solution at pH 6.0, equivalent to salivary pH. Samples are taken after 0.5, 1, 2, 4, 6, 12 and 24 hours. They are analysed by HPLC after centrifugation and filtration of the samples on a 0.45 μm PTFE filter.
The samples are received from several Indian and Chinese suppliers. Fenofibric acid form II is obtained from a suspension of fenofibrate (ester) in isopropanol.
The results in terms of solubility at saturation (after 24 hours of stirring) are given in the table below and are expressed as per the criteria of the European Pharmacopoeia in force at the time of the tests. The melting points are obtained by DSC (endothermic peak, onset measurement).

[2] = Dissolution kinetics, USP type II paddle; type: physicochemical; conditions: for fenofibric acid dissolved: FaSSIF and FeSSIF media
Experimental: The applicant studied the dissolution profile of several batches of fenofibric acid received from several suppliers. The starting material batches include different granulometric characteristics including one standard grade (non-micronised) and several micronised batches.
The batches of fenofibric acid were prepared in various pharmaceutical forms including the following excipients: hypromellose, milk protein concentrate, corn starch, Lactose monohydrate (0.4 mg/50 mg of active ingredient), sodium lauryl sulphate as surfactant, magnesium stearate, and talc as a flow agent required during production.
Dissolution tests were carried out on most of the formulation in media such as acetate buffer at […] and purified water. Similarly, the rings were tested in […] media simulating fed and fasting conditions, with addition of enzymes (media referred respectively as FeSSIF and FaSSIF) were also tested after the 50 and 100 mg doses. The USP type II paddle system was retained for the tests with 1000 ml of volume, 37° C. and the samples, taken at 0, 2, 5, 10, 15, 20, 30, 45 and 60 minutes, were analysed by HPLC without replenishing the media.

[3] = Aqueous phase solubility as a function of pH / medium; type: physicochemical
[4] = In vitro oral penetration study, Franz type diffusion cells; type: in vitro ADME, pig; conditions: 37° C., different concentrations and pH 4.5-7.4
Experimental: One of the preferred modes of administration is the oral mucous membrane route. In order to achieve this, the applicant prepared fenofibric acid solutions from samples provided by the supplier Harman Finochem (India). The in vitro penetration of the fenofibric acid formulation is evaluated using Franz type diffusion cells at 37° C., a system routinely used to evaluate the in vitro penetration of compounds through the skin, but with the oral mucous membrane as the membrane in this instance.
The applicant chose pig oral tissue because it has a non-keratinised morphology, relatively similar to the human oral epithelium (Gandhi, R. B. and Robinson. Adv Drug Deli Rev, 13:43-74, 1994). […]
The receptor compartment is filled with pH 7.4 buffer at 37° C. and the donor compartment with micronised fenofibric acid solution at 37° C. of different concentrations (from 0.2 mg/ml) with a pH also adjusted to pH 7.4 or a solution of fenofibric acid (0.5 mg/ml) in buffer solutions of different pH (4.5, 6.0, 6.8 and 7.4). Samples are taken from the receptor compartment at a predetermined time interval (2, 5, 10, 15, 30, 60, 90, 120, 150 and 180 minutes), replaced by the same volume of buffer and subsequently analysed using the HPLC method.
The quantity of fenofibric acid presented in the […] compartment is determined as a function of time. […]

mouse model of NASH = test: In vivo mouse model of non-alcoholic steatohepatitis; conditions: mice on high-fat feed and fructose water, per os once daily
Experimental: Fenofibric acid is studied at 2 doses and administered per os once daily. […] The number of male mice is 60 for the curative part of the study. They follow the normal light cycle, and are divided into enriched ventilated cages, after a one-week acclimatisation period. The mice are fed with high-fat content feed and fructose-enriched tap water. The mice are treated with the references or with the test formulation according to 2 doses, with daily administration per os for about 2 months. […] At different weeks of treatment, blood is collected to measure the blood glucose level, insulin, total cholesterol and triglyceride level, as well as the ALT and AST levels. After the final collection, the mice are sacrificed to measure the total hepatic cholesterol, triglycerides and fatty acid levels. Liver samples are also collected for histological analysis and the NAS score/index.

[5] = Solubility in 50:50 binary mixture with a surfactant; type: physicochemical
immortalised human cells = test: In vitro cellular model in NASH/NAFLD: intracellular lipid droplet content; type: cell-based; conditions: enriched medium, increasing concentrations, 24 hours
Description: The applicant decided to explore in vitro approaches to test fenofibric acid as a medicinal product inhibiting progression of non-alcoholic fatty liver disease/steatohepatitis. In this field, only a few data obtained in NASH/NAFLD using cellular models have been published, whereas for other liver diseases, the research models and means are more numerous and more studied. In general, immortalised cell lines and primary cell cultures are widely used to develop in vitro models for research. The immortalised primary cells are candidate cells selected for the in vitro study due to the stable phenotype thereof, but also due to a culture method that is simple and standardised to carry out. The immortalised human cells were cultured in an enriched medium containing increasing fenofibric acid concentrations. The purpose of the study consisted of measuring the intracellular lipid droplet content. The entire staining procedure is conducted at ambient temperature while protecting the samples from direct light. The images were acquired with a fluorescence microscope. The intracellular lipid droplet content was determined by labelling. […] This trend is all the more noteworthy at the highest fenofibric acid concentration wherein the quantity and size of the droplets decreased in relation to that observed with the lowest dose.

CC(C)(Oc1ccc(C(=O)c2ccc(Cl)cc2)cc1)C(=O)O [Fenofibric acid form II]
Solubility at saturation [1]: Slightly soluble

CC(C)(Oc1ccc(C(=O)c2ccc(Cl)cc2)cc1)C(=O)O [fenofibric acid, 2-(4-(4-chlorobenzoyl)phenoxy)-2-methylpropanoic]
fenofibric acid dissolved ([2]; after 10 minutes): over 80%
fenofibric acid dissolved ([2]; after 30 minutes): entirety
dissolution of the active ingredient alone ([2]; after 60 minutes, paddle, 1000 ml, 37° C.): totally dissolved
solubility ([3]; 0.01M sodium lauryl sulphate, aqueous with cosolvent or surfactant or cyclodextrin): 90 µg/mL (≈ 282 µM)
solubility ([3]; 0.1M sodium lauryl sulphate, aqueous with cosolvent or surfactant or cyclodextrin): 810 µg/mL (≈ 2540 µM)
solubility ([3]; 0.1N HCl, simulated gastric fluid): 2 µg/mL (≈ 6.27 µM)
solubility ([3]; aqueous buffer, Phosphate buffer pH = 4.5): 40 µg/mL (≈ 125 µM)
solubility ([3]; aqueous buffer, Phosphate buffer pH = 5.5): 330 µg/mL (≈ 1040 µM)
solubility ([3]; aqueous buffer, Phosphate buffer pH = 6.5): 1060 µg/mL (≈ 3330 µM)
solubility as a function of pH ([3]; greatest at pH values closest to neutrality): increases as a function of pH
solubility ([3]; purified water, water): 20 µg/mL (≈ 62.7 µM)
penetration through the porcine oral mucous membrane [4]: noteworthy penetration; also recorded: rapidly absorbed
increase in the triglyceride level (mouse model of NASH): significantly inhibit the increase
increase in the weight of the liver (mouse model of NASH): significantly inhibit the increase
plasma ALT concentration (mouse model of NASH): decreased substantially
development of fatty liver disease (macroscopic and microscopic examination of the liver) (mouse model of NASH; about 2 months): prevented the development of fatty liver disease
plasma ALT concentration (mouse model of NASH; listed as Fenofibric acid): notably reduced
increase in the fatty liver disease activity score (mouse model of NASH; liver histology): significantly inhibit the increase
increase in the fibrotic zones (mouse model of NASH; liver histology): significantly inhibit the increase
Solubility in water ([5]; surfactant Cremophor EL, 50:50 binary mixture): 56 mg/g
Solubility in water ([5]; surfactant Cremophor RH40, 50:50 binary mixture): 59 mg/g
Solubility in water ([5]; surfactant Labrasol, 50:50 binary mixture): 55 mg/g
Solubility in water ([5]; surfactant Solutol HS15, 50:50 binary mixture): 60 mg/g
Solubility in water ([5]; surfactant Tween 80, 50:50 binary mixture): 61 mg/g
intracellular lipid droplet content (immortalised human cells): dose-dependent fat reduction
